Source: US6518259B1, “Compositions for treating autoimmune disease” (The Regents of the University of Michigan, priority 1998, dated 2003)
Where a SMILES comes first, the peptide text is derived from it. The star is where a group is joined. Cbz = O=C(OCc1ccccc1)*; CH2F = FC*

Legend:
Assay type in all cases: cell-based, human
[1] = system: caspases (CPP32, PARP cleavage); experiment: Western blot of CPP32 and PARP cleavage after anti-Fas antibody stimulation, with or without caspase inhibitor; settings: preincubated 1 hr with 40 μM, then 100 ng/ml anti-Fas antibody
Protocol: In some examples below, Western blots were performed. For Western blot analysis, 5×10^6 cells were washed and suspended in 100 μl of lysis buffer [1% sodium dodecyl sulfate (SDS), 1 mM sodium vanadate, 10 mM Tris (pH 7.6)], and boiled for 5 min. After micro-centrifugation at 14,000 rpm, for 10 min, supernatants (cell lysates) were recovered. The protein concentration of the lysates was determined with bicinchoninic acid (BCA) protein assay reagent (Pierce). For CPP32 immunoblots, cell lysates (10-20 μg of protein per lane) were separated on 15% SDS-polyacrylamide gels under reducing conditions, transferred to polyvinylidene difluoride (PVDF) membranes (Millipore), and probed with mouse monoclonal anti-CPP32 (clone #19, IgG2a, from Signal Transduction Labs, Lexington, Ky.) followed by sheep F(ab′)2 fragment horseradish peroxidase-conjugated, anti-mouse Ig (Amersham). For PARP immunoblots, cell lysates (10 μg of protein per lane) were separated on 7.5% SDS-polyacrylamide gels, transferred to PVDF membrane, and probed with monoclonal mouse anti-human PARP antibody C2.10 (IgG1, Enzyme Systems Products Dublin, Calif.). Antibody binding was detected with an ECL detection system (Amersham).
Briefly, cells were preincubated for 1 hr in the presence or absence of 40 μM of Z-VAD-fmk, and subsequently incubated with 100 ng/ml of the anti-Fas antibody […]. At different time points thereafter, cells were collected, lysed and a Western blot analysis performed with the relevant antibodies.

[2] = system: EBV transformed B cell targets from RA patients; experiment: Cytolysis of EBV transformed target cells by Vγ9/Vδ2 T cells, 4 hr 51Cr release assay
Protocol: Fas-mediated cell death in-vivo is thought to be triggered, primarily, by cytotoxic T cells. […] However, susceptibility to cytolysis is markedly different between the two groups when determined using standard 4 hour ^51Cr release assays. FIG. 2C is a bar graph showing the susceptibility to cytolysis by Vγ9/Vδ2 T cell clones determined in EBV transformed lines from 23 normal controls, 18 patients with RA, 6 patients with pauciarticular-onset juvenile arthritis (“pJA”), and 3 patients with autoimmune thyroiditis. Lymphoblastoid target lines from all 23 normal controls tested were efficiently killed by Vγ9/Vδ2 clones, while none of the lines from 18 RA patients were susceptible. […]
Inhibition of Fas-mediated death signaling by SPP was also examined using γδ […]. Cytolysis of EBV transformed target cells by Vγ9/Vδ2 T cells was determined by 4 hr ^51Cr release assay (FIG. 5C) in the presence (●) or absence (∘) of 2.5 μM DMS. At the end of incubation, targets were washed and susceptibility to killing by γδ T cells was assessed.
Additionally, pre-incubating RA targets with pertussis toxin reversed their resistance to Fas-mediated and γδ T cell-mediated killing (FIGS. 5D and 5E). […] Cell death was determined using the commercial MTS kit (Promega, Madison, Wis.). […]

[3] = system: EBV transformed B cell lines from RA patients; experiment: Anti-Fas antibody CH-11-mediated killing of EBV transformed B cell lines, MTS kit; settings: preincubation 1 μg/ml for 1 hr, CH-11 100 ng/ml over a time course, FIG. 5D
Protocol: In this example, the susceptibility of lymphocytes to cell death is examined. As noted above, it is believed that prevention of immune-mediated self injury requires prompt elimination of activated lymphocytes at the end of an immune response. […] Briefly, PHA T cell lymphoblasts from 6 normal controls and 6 RA patients were established by stimulating peripheral blood mononuclear cells with 0.5 μg/ml PHA for 3 days, followed by expansion in 20 U/ml of recombinant human IL-2 (Collaborative Biomedical Products, Bedford, Mass.). Day-10 T cell lymphoblasts were incubated with 125 ng/ml of the agonist anti-Fas monoclonal antibody CH-11 (the antibody was immobilized and 1×10^5 cells per well were used). In all experiments, control mouse monoclonal IgM antibody (TEPC-183, from Sigma) was used in equivalent concentrations. Cell death was determined at different time points, using a commercial MTS kit (Promega, Madison. Wis.). Microplate wells were read by ELISA plate reader at 490 nm.
Additionally, pre-incubating RA targets with pertussis toxin reversed their resistance to Fas-mediated and γδ T cell-mediated killing (FIGS. 5D and 5E). […] Cell death was determined using the commercial MTS kit (Promega, Madison, Wis.). […] At the end of incubation, targets were washed and susceptibility to γδ T cell killing was determined using a 4 hr ^51Cr-release assay.

[4] = system: EBV transformed B cell lines from RA patients; experiment: Anti-Fas antibody CH-11-induced apoptosis of EBV transformed target cells, TUNEL assay; settings: prior incubation of target cells (2.5 μM DMS), 8 hr CH-11 100 ng/ml, serum-free RPMI 1640, FIG. 5B
Protocol: In some of the examples below, the TUNEL assay was used. TdT-mediated dUTP-biotin nick end-labeling (TUNEL) assay was performed as described [see (Gorczyca, W, et al. Leukemia 7, 659-70 (1993)]. Briefly, cells were fixed in 1% buffered formaldehyde (pH 7.4) for 15 min on ice, washed in phosphate-buffered saline (PBS) and stored at 4° C. in 70% ethanol. Subsequently, cells were resuspended in 50 μl of a solution containing: 5 unites of terminal deoxynucleotidyl transferase (Boehringer Mannheim, Indianapolis, Ind.), 2.5 mM CoCl2,0.2 M potassium cacodylate, 25 mM Tris-HCl, 0.25 mg/ml bovine serum albumin, 0.5 nmoles biotin-16-dUTP (Boehringer Mannheim Biochemicals, Indianapolis, Ind.). […] Green (b-dUTP) and red (DNA) fluorescence of individual cells were measured with an EPICS Elite Flow Cytometer (Coulter, Hialeah. Fla., USA).
SPP, a potent derivative of sphingosine, has been recently shown to activate a pertussis toxin-sensitive G protein and to inhibit Fas-mediated cell death, Therefore, the ability of SPP to inhibit apoptosis in RA lymphocytes was investigated Apoptosis induced by 8 hr stimulation with the anti-Fas antibody CH-11 (100 ng/ml) was determined in EBV transformed target cells in the presence FIG. 5B, dashed bars) or absence (FIG. 5B, open bars) of 2.5 μM DMS in serum-free RPMI 1640 medium supplemented with insulin and transferrin. […]

[5] = system: RA EBV transformed target cells; experiment: Anti-Fas antibody CH-11-induced apoptosis of RA EBV transformed target cells with MEK1 inhibitor; settings: 16 hr CH-11 200 ng/ml, FIG. 6
Protocol: As noted above, it is not intended that the present invention be limited to any one inhibitor. In this example, resistance to Fas-mediated cell killing is shown to be reversed by preincubation of target cells with a MEK1 inhibitor. Apoptosis of RA EBV transformed target cells was induced by 16 hr stimulation with anti-Fas antibody CH-11 (200 ng/ml) in the presence (FIG. 6, black bars) or absence (FIG. 6, open bars) of 100 µM of the MEK1 inhibitor 2-(2′-amino3′-methoxyphenyl-oxanaphthalen-4-one) (PD098059).

## COC(=O)C[C@H](NC(=O)[C@H](C)NC(=O)[C@@H](NC(=O)OCc1ccccc1)C(C)C)C(=O)CF [Z-VAD-fmk, N-benzyloxycarbonyl-Val-Ala-Asp(O-methyl)-fluromethylketone] (Cbz-Val-Ala-Asp(OMe)-CH2F)
[1]
  subsequent cell death after Fas ligation: blocks
[1]; Western blot, FIG. 4A lower panel
  cleavage of PARP: blocks
[1]; Western blot, FIG. 4A upper panel
  proteolytic processing of CPP32: blocks

## pertussis toxin
[2]; preincubation 1 μg/ml for 1 hr, 4 hr 51Cr-release, FIG. 5E
  resistance of RA targets to γδ T cell-mediated killing: reversed
[3]
  resistance of RA targets to Fas-mediated killing: reversed

## CCCCCCCCCCCCCCC[C@H](O)[C@@H](N)CO (racemic) [DHS, DL-threo-dihydrosphingosine]
[4]
  resistance of RA targets to apoptosis by anti-Fas antibodies: effectively reversed
[2]; prior incubation of target cells (2.5 μM DMS), 4 hr 51Cr release, FIG. 5C
  resistance of RA targets to apoptosis by γδ T cells: effectively reversed

## COc1cccc(-c2cc(=O)c3ccccc3o2)c1N [PD098059, 2-(2′-amino3′-methoxyphenyl-oxanaphthalen-4-one)]
[5]
  resistance to Fas-mediated cell killing: reversed
